Experimental data taken from patent US8921563B2, “1-[(4-hydroxypiperidin-4-yl)methyl]pyridin-2(1H)-one derivatives, preparation methods and uses thereof” (Institue of Pharmacology and Toxicology Academy of Military …, priority 2010, dated 2014).

How the values were obtained:
[1] = target: T1, 5-HT transport protein (SERT) (Rattus norvegicus, UniProt P31652); test: Screening: competitive binding test to SERT using [3H]-citalopram; conditions: [3H]-citalopram 1 nM; for inhibition at 10 µM / inhibition at 0.1 µM: read-out: Inhibition percent (I %), competitive binding to 5-HT transport protein (SERT)
T1 construct: Preparation of Membrane Proteins in Rat Hippocampi; from tissue; host or cells: Wistar rat hippocampus
Method: The homogenate was centrifuged under 1000×g for 10 minutes and the supernatant was then centrifuged under 39000×g for 10 minutes. The precipitate was collected, and resuspended with 10 times volume of Tris-HCl buffer solution (pH 7.4) relative to the original weight, then centrifuged under 39000×g for 10 minutes. The precipitate was washed with the same buffer solution, centrifuged under 39000×g for 10 minutes and the precipitate was suspended with the above buffer solution. After sub-packaged (the whole operation procedures were performed under ice bath), the product was stored at −80° C. The protein concentration was measured by Lowrry method.

5-HT1A receptor = target: T2, 5-HT1A receptor (Rattus norvegicus, UniProt P19327); test: Screening: competitive binding test to 5-HT1A receptor using [3H]-8-OH-DPAT, rat hippocampi membrane protein; conditions: [3H]-8-OH-DPAT 1.28 nM; for inhibition at 10 µM / inhibition at 0.1 µM: read-out: Inhibition percent (I %), competitive binding to 5-HT1A receptor
T2 construct: the content of 5-HT1A receptor extracted from rat hippocampi was 5.5 mg/ml; from tissue; host or cells: Wistar rat hippocampus, membrane preparation
T2 sequence (P19327 1-422): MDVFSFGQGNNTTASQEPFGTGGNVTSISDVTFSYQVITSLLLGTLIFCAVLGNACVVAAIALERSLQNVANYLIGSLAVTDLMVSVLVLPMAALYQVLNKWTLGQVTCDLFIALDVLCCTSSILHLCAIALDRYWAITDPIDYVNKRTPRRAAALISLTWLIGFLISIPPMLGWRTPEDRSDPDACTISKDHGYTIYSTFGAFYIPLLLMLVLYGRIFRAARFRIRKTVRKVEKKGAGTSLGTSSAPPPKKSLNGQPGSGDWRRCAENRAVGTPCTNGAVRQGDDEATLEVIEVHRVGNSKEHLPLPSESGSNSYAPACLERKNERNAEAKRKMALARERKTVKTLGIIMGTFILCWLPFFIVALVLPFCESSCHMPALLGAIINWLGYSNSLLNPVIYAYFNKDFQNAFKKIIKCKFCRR
Method: 1.4.1 Screening of YL Series Compounds
(1) Preparation of Membrane Proteins in Rat Hippocampi
Wister rats, 220-260 g, female and male, were sacrificed by decapitation and hippocampis were rapidly separated, weighed and to which homogenized in 10 times volume of Tris-HCl buffer solution (50 mM Tris-HCl, 5 mM MgCl2,1 mM EDTA, 0.5% (WN) BSA, 1 mM PMSF, 3 μg/ml proteinase inhibitor, 0.1% NaN3, 0.32M sucrose, pH 7.4) at 15,000 rpm for 30 s, total 5 times. The homogenate was centrifuged under 1000×g for 10 minutes and the supernatant was then centrifuged under 39000×g for 10 minutes. The precipitate was collected, and resuspended with 10 times volume of Tris-HCl buffer solution (pH 7.4) relative to the original weight, then centrifuged under 39000×g for 10 minutes. The precipitate was washed with the same buffer solution, centrifuged under 39000×g for 10 minutes and the precipitate was suspended with the above buffer solution. After sub-packaged (the whole operation procedures were performed under ice bath), the product was stored at −80° C. The protein concentration was measured by Lowrry method.
1) In the 5-HT1A receptor binding test, tubes are firstly placed under reaction condition of 25° C.
2) To all of the tubes, the receptor proteins extracted from rat hippocampi in an amount of 100 μg were added in sequence.
4) To the test tubes, 30 μl of the compound in corresponding concentrations (used for screening: 10^−5, 10^−7, 10^−9M) was added in sequence.
6) Tris-HCl buffer solution (50 mM Tris-HCl, 1 mM EDTA, 5 mM MgCl2, 0.1 mM PMSF, 0.1% NaN3, pH 7.4) was supplied to all of the tubes to reach a volume of 300 μl.
7) The reaction was performed at 25° C. for 1 h.
8) Then samples were applied to 49-type glass fibre filter, vacuum suction filtered, then washed three times with 2 ml ice-cold Tris-HCl buffer solution (50 mM Tris-HCl buffer solution, 1 mM EDTA, 5 mM MgCl2, 1 mM PMSF, 0.1% NaN3, 3 μg/ml proteinase inhibitor, pH 7.4). […] The radio-activity was measured by a scintillation counter.

mice [2] = test: Hole board test in mice; type: in vivo; conditions: 10 mg/kg p.o., long-term (23 days)
Method: Hole board test, an animal model of anxiety established by Boissie, et al (1962), was performed in mice.
1) Experimental device: a transparent Perspex box (40×40×27 cm) which had four holes (3 cm in diameter, 1.8 cm in depth) in the floor. The distance of each hole center to its closest wall is 10 cm.
2) Experimental method: Male Kunming mice weighing 20-25 g. The mice were intragastrically administered with YL-0911 or vehicle (distilled water). After 23 days, the mice were placed at center of the hole board with their backs facing to the observer. A head dip was scored if the animal's head dipped into the hole at least up to eye level The latency to the first head-dip, the number of head-dips and the time spent in head-dipping were recorded for 5 min.

mice [3] = test: Tail suspension test in mice; type: in vivo; conditions: 30 mg/kg p.o., acute, 1 h before test
Description: 2.1.2 Tail Suspension Test in Mice
Tail suspension test in mice is an acute behavioral despair model established by Stem, et al. (1985).
1) Experimental device: an experimental frame with spacing boards which dividing the experimental frame into 2 experimental chambers (20×25×30 cm). A clamp is mounted on a through cross rod in the chamber for clamping mice tail so as to suspend the mice.
2) Experimental method: Male Kunming mice weighing 20-25 g. The mice were intragastrically administered with YL-0911 or vehicle (distilled water). After 1 h, wrap adhesive tape around the mouse's tail in position three quarters of the distance from the base of the tail and then suspend the animals by passing the suspension hook through the adhesive tape 5 cm above the table. The duration of immobility in the last 4 min of total 6 min test was recorded.

mice [4] = test: Forced swim test in mice; type: in vivo; conditions: 40 mg/kg p.o., acute, 1 h before test
Method: 2.1.1 Forced Swim Test in Mice
Forced swim test in mice is an acute behavioral despair model established by Porsolt, et al.
(1) Experimental device: a glass cylinder (diameter 13 cm, height 24 cm, containing 10 cm of water maintained at 25).
(2) Experimental method: Male Kunming mice weighing 20-25 g. The mice were gently put in the water 1 h after intragastrically drug administration, and then the duration of immobility in the last 4 min of total 6 min test was recorded.

T1 sequence (P31652 whole entry): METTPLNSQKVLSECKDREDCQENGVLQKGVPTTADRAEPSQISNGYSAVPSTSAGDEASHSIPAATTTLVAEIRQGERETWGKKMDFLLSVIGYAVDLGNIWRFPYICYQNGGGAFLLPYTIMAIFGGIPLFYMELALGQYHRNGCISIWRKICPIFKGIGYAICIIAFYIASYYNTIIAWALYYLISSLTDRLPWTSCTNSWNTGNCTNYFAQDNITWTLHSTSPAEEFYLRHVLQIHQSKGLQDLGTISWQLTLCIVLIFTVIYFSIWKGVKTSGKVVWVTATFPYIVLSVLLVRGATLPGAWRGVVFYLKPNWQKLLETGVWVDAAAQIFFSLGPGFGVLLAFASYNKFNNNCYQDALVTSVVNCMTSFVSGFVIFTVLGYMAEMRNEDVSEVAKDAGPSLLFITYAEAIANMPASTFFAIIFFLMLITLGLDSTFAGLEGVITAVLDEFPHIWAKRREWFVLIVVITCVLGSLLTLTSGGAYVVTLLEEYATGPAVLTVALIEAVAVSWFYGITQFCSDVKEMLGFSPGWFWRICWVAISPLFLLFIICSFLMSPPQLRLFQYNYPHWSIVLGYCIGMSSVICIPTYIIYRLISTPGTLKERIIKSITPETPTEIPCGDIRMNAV

inhibition at 10 µM (5-HT1A receptor; compound 10^-5 mol/L) [%]	inhibition at 0.1 µM (5-HT1A receptor; compound 10^-7 mol/L) [%]	Inhibition percent (I %), competitive binding to 5-HT1A receptor (5-HT1A receptor; compound 10^-5 mol/L) [%]	Inhibition percent (I %), competitive binding to 5-HT1A receptor (5-HT1A receptor; compound 10^-7 mol/L) [%]	SMILES	also measured
100	58			O=c1ccccn1CC1(O)CCN(Cc2ccccc2F)CC1 [Compound 2, 1-{[1-(2-fluorobenzyl)-4-hydroxypiperidin-4-yl]-methyl}-pyridin-2(1H)-one]	inhibition at 10 µM ([1]; compound 10^-5 mol/L): 100%; inhibition at 0.1 µM ([1]; compound 10^-7 mol/L): 50%
100	10			O=c1ccccn1CC1(O)CCN(Cc2ccc(F)cc2)CC1 [Compound 3, 1-{[1-(4-fluorobenzyl)-4-hydroxypiperidin-4-yl]-methyl}-pyridin-2(1H)-one]	
		100	57	O=c1ccccn1CC1(O)CCN(Cc2ccc(F)cc2F)CC1 [Compound 4, 1-{[1-(2,4-difluorobenzyl)-4-hydroxypiperidin-4-yl]-methyl}-pyridin-2(1H)-p-one]	Inhibition percent (I %), competitive binding to 5-HT transport protein (SERT) ([1]; compound 10^-5 mol/L): 100%; Inhibition percent (I %), competitive binding to 5-HT transport protein (SERT) ([1]; compound 10^-7 mol/L): 58%
94	62			O=c1ccc(Br)cn1CC1(O)CCN(Cc2ccccc2)CC1 [Compound 5, 5-bromo-1-[(1-benzyl-4-hydroxypiperidin-4-yl)-methyl]-pyridin-2(1H)-one]	inhibition at 10 µM ([1]; compound 10^-5 mol/L): 100%; inhibition at 0.1 µM ([1]; compound 10^-7 mol/L): 77%
100	74			O=c1ccc(Br)cn1CC1(O)CCN(Cc2ccccc2F)CC1 [Compound 6, 5-bromo-1-{[1-(2-fluorobenzyl)-4-hydroxypiperidin-4-yl]-methyl}-pyridin-2(1H)-one]	inhibition at 10 µM ([1]; compound 10^-5 mol/L): 87%; inhibition at 0.1 µM ([1]; compound 10^-7 mol/L): 44%
		59	2	O=c1ccc(Br)cn1CC1(O)CCN(Cc2ccc(F)cc2)CC1 [Compound 7, 5-bromo-1-{[1-(4-fluorobenzyl)-4-hydroxypiperidin-4-yl]-methyl}-pyridin-2(M)-one]	
		42	19	O=c1ccc(Br)cn1CC1(O)CCN(Cc2ccc(F)cc2F)CC1 [Compound 8, 5-bromo-1-{[1-(2,4-fluorobenzyl)-4-hydroxypiperidin-4-yl]-methyl}-pyridin-2(M)-one]	
		100	25	Cc1ccn(CC2(O)CCN(Cc3ccccc3)CC2)c(=O)c1 [Compound 9, 1-[(1-benzyl-4-hydroxypiperidin-4-yl)-methyl]-4-methylpyridin-2(M)-one]	
		76	37	Cc1ccn(CC2(O)CCN(Cc3ccccc3F)CC2)c(=O)c1 [Compound 10, 1-{[1-(2-fluorobenzyl)-4-hydroxypiperidin-4-yl]-methyl}-4-methylpyridin-2(M)-one]	
		57	14	Cc1ccn(CC2(O)CCN(Cc3ccc(F)cc3)CC2)c(=O)c1 [Compound 11, 1-{[1-(4-fluorobenzyl)-4-hydroxypiperidin-4-yl]-methyl}-4-methylpyridin-2(M)-one]	
		61	30	Cc1ccn(CC2(O)CCN(Cc3ccc(F)cc3F)CC2)c(=O)c1 [Compound 12, 1-{[1-(2,4-difluorobenzyl)-4-hydroxypiperidin-4-yl]-methyl}-4-methylpyridin-2(M)-one]	
				CNCCC(Oc1ccc(C(F)(F)F)cc1)c1ccccc1 (centres unmarked) [Fluoxetine, fluoxetine, reference compound]	the latency to the first head-dip (mice [2]): 42.70 ± 9.43 s; Number of Head dips (mice [2]; 5 min): 9.60 ± 1.49; Time of head dipping (mice [2]; 5 min): 6.31 ± 1.03 s; Immobility time (s), tail suspension test (mice [3]): 56.2 ± 41.7 s
				CN(C)CCCN1c2ccccc2CCc2ccccc21 [Imipramine, reference compound]	Immobility time (s), forced swim test (mice [4]): 88.0 ± 58.2 s
